This passage reports IC50 and inhibition results from patent publication US6459001B1 (Aventis Pharma S.A., priority 1997, dated 2002).

SMILES strings stand for the structures.

The target of one assay is human αvβ3 receptor (Homo sapiens, UniProt P05106+P06756). As to the kind of experiment: Displacement of the binding Vitronectin/Vitronectin receptor (αvβ3), competition test. Particulars: human vitronectin coated plates, 3 hours at ambient temperature, read-out: Competition test Vn/VR (αvβ3) binding IC50 en. The protocol:
1—Study of the Products of the Invention on the Displacement of the Binding: Vitronectin/Vitronectin Receptor (αvβ3) […]
MaxiSorp 96-well plates are coated overnight at 4° C., with 100 μl of human Vitronectin (cf Yatohgo et al. Cell., Structure and fraction 13: 281-292 (1988)) at 2 μg/ml, (Dilution in coating buffer).
The next day, the wells are emptied and the ligands (Vitronectin) are then fixed (see fixing buffer) for one hour at ambient temperature under gentle agitation.
The wells are washed six times (see washing buffer), then the following are added to each well and in this order:
40 μl of incubation buffer, 10 μl of the dilution of the product to be tested, (the products are diluted in a 50/50 mixture of DMSO-H2O) 50 μl of human αvβ3 receptor (cf Pytela et al. Methods Enzymol (1987) 144:475) (dilution in incubation buffer, to be adapted according to the receptor batch and according to the ligand).
The ligand, the human αvβ3 receptor and the products to be studied are incubated for 3 hours at ambient temperature under gentle agitation.
The wells are again washed six times, then incubated for 2 hours at ambient temperature under gentle agitation, in the presence of 100 μl of anti-receptor, 4B12-HRP antibody coupled to a peroxidase (the 4B12-HRP antibody is diluted in an incubation buffer. The dilution is to be adapted according to the receptor batch).
This kit contains a bottle A of substrate (3,3′,5,5′-tetramethylbenzidine at 0.4 g/l) and a bottle B (H2O2 at 0.02% in a citrate/citric acid buffer). Extemporaneously, a volume of A is mixed with a volume of B, then the reaction mixture is distributed at a rate of 100 μl/well. The enzymatic reaction develops over […] for Vitronectin/αvβ3, then its development is stopped by the addition of 100 μl of 1M phosphoric acid. The optical density is measured at 450 nm. […]
coating buffer: Carbonate 0.05 M, NaOH pH 9.6 fixing buffer: PBS containing 0.5% BSA (pH 7.4) washing buffer: PBS containing 0.05% Tween 20 (pH 7.4)
Expression of the Results:
The following curve is traced: the percentage of binding of the human vitronectin as a function of the logarithm of the concentration of each product tested.
For each product the IC50 is determined according to the following formula:
BO=Maximum binding in the absence of any product
Bmin=Minimum binding in the presence of the highest concentration of product.

In assay [1] the test system is bone resorption (skullcaps of new-born mice). As to the kind of experiment: Test of mouse calvarium: bone resorption by release of 45Ca from skullcaps of new-born mice, ex-vivo. Particulars: Mus musculus, inhibition of bone resorption (45Ca release) in half-calvaria, 48 hours contact, read-out: Mouse cavarium % inhibition at 10 μM. The source says: 2—Test of Mouse Calvarium
Injection of a tracer dose of ^45Ca (CaCl2) to gestating female mice in order to study bone resorption by measuring the release of ^45Ca from the skullcaps of new-born mice.
Determination of the activity of a molecule on bone resorption, ex-vivo study.
Vehicle: DMSO, H2O/BSA (0.1%)
Dose: Variable ([…] in screening).
Echistatin (ref. H-9010-BACHEM)
^45Ca in the form of an aqueous solution of CaCl2—ref. CES3 AMERSHAM or NEZ-013 NEN.
Vehicle: Physiological serum
Dose: 25 μCi/mouse/0.4 ml
CMRL 1066 with phenol red (ref. 041-01535 M/GIBCO) supplemented by 0.1% BSA and penicillin/streptomycin.
1) Injection of ^45Ca to Gestating Mice (OF1, Strain: Swiss)
a) Preparation of the Labelled Solution:
190 μl of the mother solution of calcium at 2 mci/ml is added to 6 ml of physiological serum.
On the 17th day of gestation the mice receive 400 μl of this solution by intravenous route, that is 25 μCi/mouse.
2) Removal of the Tissue (Skullcap (Calvarium))
Six days after their birth the new-born mice are decapitated, then the head is recovered, and the skin is incised from the nape to the front. The skullcap is removed by cutting it out with scissors, and using a punch two exactly identical half-calvaria (one on the left and one on the right) are cut from the parietal bones. One will serve as the control, the other will be used to test the product to be studied.
Each half calvarium is placed in a well of a 24-well plate, containing 1 ml of medium, on a 100 μm polyethylene and nylex support, in order to avoid all contact with the bottom of the well.
After 24 hours, the polyethylene supports carrying the calvaria are transferred into new 24-well plates containing 1 ml of fresh medium and the products to be tested or their solvents. 200 μl of medium from the first plates is removed from each well and a first count of the radioactivity is carried out (value A).
This change of medium allows all the mechanical stress associated with the removal to be eliminated.
48 hours after putting the tissues in contact with the studied products, 200 μl of medium is removed from each well and counted (value B), so as to determine the quantity of ^45Ca released from the medium during the so-called resorption phase.
The calvarium is then completely demineralized in 1 ml of 5% trichloracetic acid and after digestion, 200 μl is also removed and counted so as to determine the quantity of calcium remaining in the bone (value C). Expression of the results
A % of bone resorption is calculated for each half-calvarium (each well) in the following manner:
% bone resorption=dpm B/dpm (A+B+C)×100
The sum of dpm A+B+C represents the quantity of ^45Ca incorporated in each bone part on the day of removal.
In order to measure the effect of a product, the ratio of the percentage of bone resorption of the treated well and of the corresponding control well is calculated for each point. The value found called the resorption index is comprised between 0 and 1 if the product inhibits bone resorption and is >1 if the product potentializes it. The average of the 6 indices (since there are 6 points/group) of each product is then calculated which gives one index/product. If this index is subtracted from the value 1, the inhibitory power of the product is obtained, which can be expressed as a percentage.
Furthermore a statistical test (Student T-test) is carried out by comparing point/point the individual resorption indices.

By inhibition is commonly meant the change of the read-out against control, counted positive when it falls. As to `COc1c(OCCCC(=O)O)cc2c(c1OC)C1=C(CCC1)C(=NNC1=NCCCN1)CC2` [EX. 12, 4-((9,10-Dimethoxy-4-((1,4,5,6-tetrahydro-2-pyrimidinyl)hydrazono)-1,2,3,4,5,6-hexahydro-8-benz(e)-azulenyl)oxy)-butanoic Acid], the IC50 on human αvβ3 receptor is 350 nM. Also, in assay [1], the inhibition at 10 µM came out at 12%.

For the compound `COc1c(OCCC(=O)O)cc2c(c1OC)C1=C(CCC1)C(=NNC1=NCCN1)CC2` [EX. 14, 3-(4((4,5-Dihydro-1H-imidazolin-2-yl)hydrazono)-9,10-dimethoxy-1,2,3,4,5,6-hexahydro-8-benz(e)azulenyl)oxy)-propanoic Acid], the IC50 at human αvβ3 receptor stood at 750 nM. The inhibition at 10 µM in assay [1] was determined as 14%.

In the case of `O=C(O)CCCOc1ccc2c(c1)C1=C(CCC1)C(=NNC1=NCCN1)CC2` [EX. 20, 4-((4((4,5-Dihydro-1H-imidazol-2-yl)hydrazono)-1,2,3,4,5,6-hexahydro-9-benz(e)azulenyl)oxy)-butanoic Acid], the IC50 on human αvβ3 receptor worked out at 79 nM. Besides, in assay [1], the inhibition at 10 µM is 11%.
